Holding throughout (format): in vitro ADME
Data set [1] deals with CYP3A4 (Homo sapiens, UniProt P08684). Nature of the data set: CYP3A4 inhibition.
Data set [2] concerns the target CYP2C9 (Homo sapiens, UniProt P11712). Nature of the data set: CYP2C9 inhibition.
In data set [3] the target is CYP2D6 (Homo sapiens, UniProt P10635). As to the kind of experiment: CYP2D6 inhibition.

These results are taken from patent publication US20100016360A1 (WYETH, priority 2008, published 2010).

Molecules are shown by their SMILES.

CYP2D6, sequence (P10635 whole entry, species assumed): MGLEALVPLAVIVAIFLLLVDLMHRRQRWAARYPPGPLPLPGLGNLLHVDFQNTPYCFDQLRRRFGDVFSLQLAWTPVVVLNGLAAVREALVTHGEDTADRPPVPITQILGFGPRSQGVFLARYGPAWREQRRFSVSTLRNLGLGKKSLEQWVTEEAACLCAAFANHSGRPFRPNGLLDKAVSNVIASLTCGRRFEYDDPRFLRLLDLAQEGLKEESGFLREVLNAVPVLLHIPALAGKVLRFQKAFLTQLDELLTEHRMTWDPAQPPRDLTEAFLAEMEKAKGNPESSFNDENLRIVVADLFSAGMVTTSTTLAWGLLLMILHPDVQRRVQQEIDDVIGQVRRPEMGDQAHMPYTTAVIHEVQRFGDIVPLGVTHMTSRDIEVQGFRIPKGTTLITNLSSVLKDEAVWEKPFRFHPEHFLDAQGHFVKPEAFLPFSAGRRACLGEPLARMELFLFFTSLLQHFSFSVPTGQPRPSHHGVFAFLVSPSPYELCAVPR
CYP3A4, sequence (P08684 whole entry, species assumed): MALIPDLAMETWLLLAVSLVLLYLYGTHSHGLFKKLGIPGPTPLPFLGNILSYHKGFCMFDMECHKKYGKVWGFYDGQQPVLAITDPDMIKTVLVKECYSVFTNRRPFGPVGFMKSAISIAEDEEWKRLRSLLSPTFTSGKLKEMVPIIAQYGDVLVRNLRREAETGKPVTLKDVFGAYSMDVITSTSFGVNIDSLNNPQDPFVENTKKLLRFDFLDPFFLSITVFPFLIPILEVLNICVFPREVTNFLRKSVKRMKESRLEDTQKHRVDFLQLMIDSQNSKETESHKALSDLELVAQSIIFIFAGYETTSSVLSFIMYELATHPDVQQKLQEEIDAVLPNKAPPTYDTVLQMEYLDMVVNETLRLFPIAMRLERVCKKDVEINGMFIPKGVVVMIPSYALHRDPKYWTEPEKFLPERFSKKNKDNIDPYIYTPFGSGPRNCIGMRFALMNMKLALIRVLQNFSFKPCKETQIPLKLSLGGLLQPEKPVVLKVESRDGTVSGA
CYP2C9, sequence (P11712 whole entry, species assumed): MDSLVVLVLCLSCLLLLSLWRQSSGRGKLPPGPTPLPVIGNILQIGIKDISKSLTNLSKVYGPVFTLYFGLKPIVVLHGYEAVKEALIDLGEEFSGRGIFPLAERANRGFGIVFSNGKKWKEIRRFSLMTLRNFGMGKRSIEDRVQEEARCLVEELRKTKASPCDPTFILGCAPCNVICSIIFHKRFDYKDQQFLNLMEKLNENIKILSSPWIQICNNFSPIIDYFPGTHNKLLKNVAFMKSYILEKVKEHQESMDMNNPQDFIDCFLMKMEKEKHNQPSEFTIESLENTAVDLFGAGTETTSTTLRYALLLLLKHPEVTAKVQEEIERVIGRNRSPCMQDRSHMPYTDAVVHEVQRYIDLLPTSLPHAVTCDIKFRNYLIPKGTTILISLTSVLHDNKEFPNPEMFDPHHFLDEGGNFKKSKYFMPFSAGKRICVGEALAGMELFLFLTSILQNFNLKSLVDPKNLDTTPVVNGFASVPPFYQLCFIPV

In the case of `COc1ncccc1-c1ccc(NC(=O)NCCCCN2CCCCC2)cc1`, the CYP3A4 % inhibition in data set [1] was −21%. The CYP2C9 % inhibition in data set [2] is −36%. The molecule also displayed a CYP2D6 % inhibition in data set [3] of 8%.
